Columns and labels:
egg albumin = egg albumin (Gallus gallus, UniProt P01012); test: Albumin denaturation assay (in vitro anti-inflammatory activity); parameters: species or system hen; details: means ± SD, n = 3, read-out: percentage inhibition of albumin denaturation
Method: In this assay egg albumin is used as protein. Protein denaturation is achieved by keeping the reaction mixture at 70 °C in a water bath for 10 minutes.
The reaction mixture containing 0.2 ml of egg albumin (from fresh hen's eggs), 2.8 ml of phosphate-buffered saline (pH 6.4), and were mixed with 2 ml of the synthesized compounds in varying concentrations. Then the samples were incubated at 37 °C for 20 min and then heated to 70 °C for 20 min. After cooling the samples, the turbidity was measured spectrophotometrically at 660 nm. […] The following formula was used to calculate the percentage inhibition of protein denaturation. [drawing 5]

PPARγ LBD protein = target: T1, PPARγ LBD protein (Homo sapiens, UniProt P37231); test: LanthaScreen TR-FRET competitive ligand displacement (PPARγ protein binding) assay; details: for IC50: TR-FRET PPARγ binding, tracer displacement
T1 construct: 1 nM 6xHis-PPAR LBD protein
T1 sequence (P37231 238-503 limits assumed): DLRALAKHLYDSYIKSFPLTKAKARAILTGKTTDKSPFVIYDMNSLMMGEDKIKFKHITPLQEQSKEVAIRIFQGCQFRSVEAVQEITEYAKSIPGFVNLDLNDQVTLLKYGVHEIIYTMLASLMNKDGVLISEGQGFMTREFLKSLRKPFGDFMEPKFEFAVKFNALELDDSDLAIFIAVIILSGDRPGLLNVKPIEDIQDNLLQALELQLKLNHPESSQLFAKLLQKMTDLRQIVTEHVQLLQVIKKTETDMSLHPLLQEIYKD
Method: Based on time-resolved fluorescence resonance energy transfer (TR-FRET), the nuclear receptor competitive binding assay was utilized to identify PPARγ ligands. […] The tracer is displaced from PPARγ-LBD by a chemical under test, resulting in a decrease in the FRET signal and a low TR-FRET ratio (Fig. 8).
We performed a time-resolved fluorescence resonance energy transfer (TR-FRET) assay using a black flat bottom 384-well plate and a buffer containing 20 mM potassium phosphate (pH 7.4), 0.5 mM EDTA, 50 mM KCl, and 0.01% Tween-20, 5 mM TCEP. For the TR-FRET coregulator interaction assay, each well contained 400 nM FITC-labeled TRAP220 or NCoR1 peptides, 1 nM LanthaScreen Elite Tb-anti-His Antibody, 4 nM 6xHis-PPARγ LBD protein and 400 nM peptide in TR-FRET buffer in 22.5 μL total volume per well. Each well ([…] per well) included 1 nM 6xHis-PPAR LBD protein, 1 nM LanthaScreen Elite Tb-anti-His Antibody, and 5 nM Fluormone Pan-PPAR Green tracer ligand in TR-FRET buffer for the ligand displacement experiment. Ligand stocks were made by serial dilution in DMSO, then added to wells in triplicate to a final DMSO concentration of 1%, then incubated at room temperature for 1 hour, and read using a BioTek Synergy Neo multimode plate reader. The Tb donor was stimulated at 340 nm, its fluorescence emission was measured at 490 nm, and the FITC emission of the acceptor was detected at 520 nm. The signal at 520 nm/490 nm was used to compute the TR-FRET ratio.[37,38]

egg albumin, sequence (P01012 2-386): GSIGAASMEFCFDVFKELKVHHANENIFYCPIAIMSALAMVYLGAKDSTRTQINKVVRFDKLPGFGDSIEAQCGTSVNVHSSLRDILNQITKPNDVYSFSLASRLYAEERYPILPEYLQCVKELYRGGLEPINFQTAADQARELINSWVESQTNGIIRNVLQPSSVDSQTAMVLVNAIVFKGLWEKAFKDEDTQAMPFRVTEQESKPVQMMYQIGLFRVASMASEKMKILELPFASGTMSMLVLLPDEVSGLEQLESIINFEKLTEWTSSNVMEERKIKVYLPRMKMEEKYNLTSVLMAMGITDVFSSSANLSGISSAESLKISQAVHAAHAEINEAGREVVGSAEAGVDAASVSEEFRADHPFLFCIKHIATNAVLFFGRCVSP

Structure (SMILES) | inhibition at 6.25 µM (egg albumin) [%] | inhibition at 12.5 µM (egg albumin) [%] | inhibition at 25 µM (egg albumin) [%] | inhibition at 50 µM (egg albumin) [%] | inhibition at 150 µM (egg albumin) [%] | inhibition at 200 µM (egg albumin) [%] | inhibition at 400 µM (egg albumin) [%] | IC50 (PPARγ LBD protein) [µM] | Raw Data (RLU) (PPARγ LBD protein; TR-FRET signal at 0.0000512 µM) | Raw Data - Background (RLU) (PPARγ LBD protein; TR-FRET signal at 0.0000512 µM) | Raw Data (RLU) (PPARγ LBD protein; TR-FRET signal at 0.000256 µM) | Raw Data - Background (RLU) (PPARγ LBD protein; TR-FRET signal at 0.000256 µM) | Raw Data (RLU) (PPARγ LBD protein; TR-FRET signal at 0.00128 µM) | Raw Data - Background (RLU) (PPARγ LBD protein; TR-FRET signal at 0.00128 µM) | Raw Data (RLU) (PPARγ LBD protein; TR-FRET signal at 0.0064 µM) | Raw Data - Background (RLU) (PPARγ LBD protein; TR-FRET signal at 0.0064 µM) | Raw Data (RLU) (PPARγ LBD protein; TR-FRET signal at 0.032 µM) | Raw Data - Background (RLU) (PPARγ LBD protein; TR-FRET signal at 0.032 µM) | Raw Data (RLU) (PPARγ LBD protein; TR-FRET signal at 0.16 µM) | Raw Data - Background (RLU) (PPARγ LBD protein; TR-FRET signal at 0.16 µM) | further results
C=CCc1ccc(OCC(=O)Nc2ccc(C)cc2)c(OC)c1 [Compound 1A, 2-(4-Allyl-2-methoxyphenoxy)-N-p-tolylacetamide] | 2.42 ± 0.165 | 5.7 ± 3.19 | 8.72 ± 3.93 | 13.3 ± 7.51 | 17.2 ± 8.71 | 25.4 ± 2.87 | 32 ± 2.95 | 13.5 | 2.07 | 1.84 | 2.10 | 1.862 | 2.02 | 1.787 | 1.92 | 1.688 | 2.00 | 1.76 | 1.95 | 1.716 | Raw Data (RLU) (PPARγ LBD protein; TR-FRET signal at 0.8 µM): 1.99 RLU; Raw Data - Background (RLU) (PPARγ LBD protein; TR-FRET signal at 0.8 µM): 1.754 RLU; Raw Data (RLU) (PPARγ LBD protein; TR-FRET signal at 4 µM): 1.57 RLU; Raw Data - Background (RLU) (PPARγ LBD protein; TR-FRET signal at 4 µM): 1.332 RLU; Raw Data (RLU) (PPARγ LBD protein; TR-FRET signal at 20 µM): 1.07 RLU; Raw Data - Background (RLU) (PPARγ LBD protein; TR-FRET signal at 20 µM): 0.8399 RLU; Raw Data (RLU) (PPARγ LBD protein; TR-FRET signal at 100 µM): 0.54 RLU; Raw Data - Background (RLU) (PPARγ LBD protein; TR-FRET signal at 100 µM): 0.3006 RLU
C=CCc1ccc(OCC(=O)Nc2ccc(OC)cc2)c(OC)c1 [Compound 1B, 2-(4-Allyl-2-methoxyphenoxy)-N-(4-methoxyphenyl) acetamide] | 1.71 ± 0.344 | 4.57 ± 0.54 | 6.82 ± 1.37 | 8.59 ± 0.205 | 9.45 ± 0.681 | 16.4 ± 5.09 | 30.7 ± 4.44 | 41.5 | 2.024 | 1.789 | 1.990 | 1.755 | 1.965 | 1.73 | 1.913 | 1.678 | 1.913 | 1.678 | 1.960 | 1.724 | Raw Data (RLU) (PPARγ LBD protein; TR-FRET signal at 0.8 µM): 2.002 RLU; Raw Data - Background (RLU) (PPARγ LBD protein; TR-FRET signal at 0.8 µM): 1.767 RLU; Raw Data (RLU) (PPARγ LBD protein; TR-FRET signal at 4 µM): 1.855 RLU; Raw Data - Background (RLU) (PPARγ LBD protein; TR-FRET signal at 4 µM): 1.619 RLU; Raw Data (RLU) (PPARγ LBD protein; TR-FRET signal at 20 µM): 1.280 RLU; Raw Data - Background (RLU) (PPARγ LBD protein; TR-FRET signal at 20 µM): 1.045 RLU; Raw Data (RLU) (PPARγ LBD protein; TR-FRET signal at 100 µM): 0.534 RLU; Raw Data - Background (RLU) (PPARγ LBD protein; TR-FRET signal at 100 µM): 0.2989 RLU
C=CCc1ccc(OCC(=O)Nc2ccc(Cl)cc2)c(OC)c1 [Compound 1C, 2-(4-Allyl-2-methoxyphenoxy)-N-(4-chlorophenyl) acetamide] | 5.23 ± 4.12 | 9.14 ± 0.615 | 15.7 ± 1.59 | 22.6 ± 1.98 | 38.5 ± 1.1 | 48.1 ± 1.14 | 56.9 ± 1.8 | 10.7 | 2.069 | 1.834 | 1.896 | 1.660 | 1.907 | 1.672 | 1.934 | 1.699 | 1.989 | 1.754 | 1.921 | 1.686 | Raw Data (RLU) (PPARγ LBD protein; TR-FRET signal at 0.8 µM): 1.922 RLU; Raw Data - Background (RLU) (PPARγ LBD protein; TR-FRET signal at 0.8 µM): 1.687 RLU; Raw Data (RLU) (PPARγ LBD protein; TR-FRET signal at 4 µM): 1.761 RLU; Raw Data - Background (RLU) (PPARγ LBD protein; TR-FRET signal at 4 µM): 1.526 RLU; Raw Data (RLU) (PPARγ LBD protein; TR-FRET signal at 20 µM): 1.058 RLU; Raw Data - Background (RLU) (PPARγ LBD protein; TR-FRET signal at 20 µM): 0.823 RLU; Raw Data (RLU) (PPARγ LBD protein; TR-FRET signal at 100 µM): 0.951 RLU; Raw Data - Background (RLU) (PPARγ LBD protein; TR-FRET signal at 100 µM): 0.716 RLU
C=CCc1ccc(OCC(=O)Nc2cccc(C)c2)c(OC)c1 [Compound 1D, 2-(4-Allyl-2-methoxyphenoxy)-N-m-tolylacetamide] | 2.66 ± 1.12 | 7.88 ± 3.8 | 11.1 ± 3.65 | 15.9 ± 7.79 | 22.4 ± 5.43 | 29.6 ± 3.94 | 36.7 ± 4.77 | 15 | 1.92 | 1.69 | 1.95 | 1.72 | 1.85 | 1.61 | 2.07 | 1.83 | 1.93 | 1.70 | 1.87 | 1.64 | Raw Data (RLU) (PPARγ LBD protein; TR-FRET signal at 0.8 µM): 1.91 RLU; Raw Data - Background (RLU) (PPARγ LBD protein; TR-FRET signal at 0.8 µM): 1.68 RLU; Raw Data (RLU) (PPARγ LBD protein; TR-FRET signal at 4 µM): 1.91 RLU; Raw Data - Background (RLU) (PPARγ LBD protein; TR-FRET signal at 4 µM): 1.67 RLU; Raw Data (RLU) (PPARγ LBD protein; TR-FRET signal at 20 µM): 1.91 RLU; Raw Data - Background (RLU) (PPARγ LBD protein; TR-FRET signal at 20 µM): 1.67 RLU; Raw Data (RLU) (PPARγ LBD protein; TR-FRET signal at 100 µM): 1.40 RLU; Raw Data - Background (RLU) (PPARγ LBD protein; TR-FRET signal at 100 µM): 1.17 RLU
O=C(O)Cc1ccccc1Nc1c(Cl)cccc1Cl [Standard diclofenac, Diclofenac sodium, reference compound] | 10 ± 0.463 | 15.7 ± 0.429 | 27 ± 0.336 | 38.5 ± 0.468 | 48.3 ± 3.14 | 60.9 ± 0.223 | 66.29 ± 0.375 | – | – | – | – | – | – | – | – | – | – | – | – | – | –

Source: article PMC9172550, “Novel derivatives of eugenol as potent anti-inflammatory agents via PPARγ agonism: rational design, synthesis, analysis, PPARγ protein binding assay and computational studies” (RSC Advances, 2022)
